# Reference: patent publication US20030211547A1 (priority 2002, published 2003)
# Where two headings read alike, the source gives them in different places.
# Legend:
# [1] = test system: C. elegans; assay: Aldicarb sensitivity (paralysis) of C. elegans; type: in vivo
# Excerpt: (§1) Based on studies of other known mutants in C. elegans, hypersensitivity to aldicarb may indicate an increase in synaptic transmission of acetylcholine compared with wild-type animals.
# [2] = test system: C. elegans
# Excerpt: The F2 population was screened to identify animals that were homozygous for recessive mutations or heterozygous for dominant mutations that alter sensitivity to the effects of ethanol on locomotion. Wild-type C. elegans normally move with a sinusoid pattern of locomotion, but when exposed to high concentrations of ethanol, they display extreme, reversible (after the removal of ethanol) uncoordination and paralysis. Animals that are resistant to the effects of ethanol display the sinusoid pattern of locomotion even in the presence of high concentrations of ethanol. To identify the mutants, animals of the F2 generation were washed from their plates into 1.5 ml tubes, rinsed free of bacteria and incubated in a solution of 400 mM ethanol for 30-50 min. The worms were then transferred to the center of 100 mm petri plates that held media containing 400 mM ethanol and a circle of E. coli (OP50) bacteria on the periphery of the media. […] Animals that moved to the bacteria quickly and with a wild-type pattern of locomotion were identified as ethanol-resistant candidates.
# The slo-1 gene is expressed in most, if not all neurons, and in body wall muscle but not in pharyngeal muscle. […] BK4.1 has the slo-1 cdNA fused with the promoter from the C. elegans body muscle myosin (myo-3) gene, which is expressed exclusively in body muscle. We transformed animals homozygous for a known null mutation of slo-1(js118) with each of these DNA constructs separately where the concentration of the BK3.1 or BK4.1 constructs was 20 ng/μ1 in the injection solution. So that we could identify transformed progeny of the injected animals we coinjected a DNA construct that expresses the green fluorescent protein (GFP) in neurons with BK3.1 and a construct that expresses GFP in body muscle with BK4.1. In this way we could examine the progeny of the injected animals under a UV microscope and any animals showing GFP fluorescence have been transformed with the injected DNA. If transformed animals are picked to individual plates and their progeny examined for the presence of GFP, only the animals that are germ-line transformants will have progeny expressing GFP.
# (§2) To rule out the possibility of hyperactivity contributing to the resistance seen in slo-1, we compared the level of resistance caused by mutations in slo-1 with the resistance induced by mutations in other regulators of neuron activity including loss-of-function mutations in dgk-1 and goa-1 and a gain-of-function mutation in egl-30. Each of these mutants appears phenotypically hyperactive with increased amplitude of body bends and hyperactive egg laying. […] When SLO-1 is absent the ethanol […] in the nervous system and its effects are greatly minimized.
# [3] = test system: C. elegans; remark: listed apart in the source
# Excerpt: These mutants were examined for the effect of ethanol on two behaviors other than locomotion: egg laying and pharyngeal pumping. […] Unlike wild-type worms, the egg-laying behavior of BZ6, BZ7 and BZ73 worms was unaffected by high doses of ethanol.
# as §2
# [4] = test system: C. elegans; remark: listed apart in the source
# Excerpt: as §1
# [5] = biological target: BK channels (Homo sapiens, UniProt Q12791); details: cited from earlier work
# Sequence of BK channels (Q12791 whole entry): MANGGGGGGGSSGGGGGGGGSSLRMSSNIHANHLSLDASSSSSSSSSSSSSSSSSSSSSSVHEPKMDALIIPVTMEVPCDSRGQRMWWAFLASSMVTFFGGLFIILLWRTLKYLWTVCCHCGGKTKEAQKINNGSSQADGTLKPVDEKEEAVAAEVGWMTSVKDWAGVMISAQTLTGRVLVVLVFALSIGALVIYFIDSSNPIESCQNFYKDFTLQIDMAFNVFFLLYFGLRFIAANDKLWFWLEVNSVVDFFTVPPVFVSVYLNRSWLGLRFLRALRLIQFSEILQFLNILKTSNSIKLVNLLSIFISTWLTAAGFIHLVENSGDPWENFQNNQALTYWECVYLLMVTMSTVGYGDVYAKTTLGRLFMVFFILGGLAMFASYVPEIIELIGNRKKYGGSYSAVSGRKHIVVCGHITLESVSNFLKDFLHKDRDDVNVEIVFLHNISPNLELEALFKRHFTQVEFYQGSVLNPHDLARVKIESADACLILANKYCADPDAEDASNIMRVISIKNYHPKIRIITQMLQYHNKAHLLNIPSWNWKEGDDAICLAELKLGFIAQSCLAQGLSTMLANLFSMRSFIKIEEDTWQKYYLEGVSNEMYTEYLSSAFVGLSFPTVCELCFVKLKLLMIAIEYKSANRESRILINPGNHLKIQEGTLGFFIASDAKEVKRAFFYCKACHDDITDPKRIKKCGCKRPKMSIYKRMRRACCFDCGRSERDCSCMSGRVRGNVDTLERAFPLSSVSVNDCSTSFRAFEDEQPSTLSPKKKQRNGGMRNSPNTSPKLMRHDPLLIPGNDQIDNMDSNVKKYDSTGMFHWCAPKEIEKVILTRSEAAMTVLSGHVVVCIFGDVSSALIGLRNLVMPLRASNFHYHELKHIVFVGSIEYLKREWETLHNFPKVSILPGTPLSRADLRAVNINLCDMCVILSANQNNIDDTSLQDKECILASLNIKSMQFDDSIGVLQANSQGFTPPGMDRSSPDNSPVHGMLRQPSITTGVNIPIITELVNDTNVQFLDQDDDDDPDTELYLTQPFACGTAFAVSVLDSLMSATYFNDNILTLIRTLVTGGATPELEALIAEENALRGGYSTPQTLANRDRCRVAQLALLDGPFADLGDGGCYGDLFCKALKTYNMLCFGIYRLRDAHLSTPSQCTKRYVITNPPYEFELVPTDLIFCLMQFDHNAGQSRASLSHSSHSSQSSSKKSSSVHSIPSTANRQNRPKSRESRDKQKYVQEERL
molecule,measurement,setting,value
CNC(=O)O/N=C/C(C)(C)SC [aldicarb],concentrations of aldicarb at which paralysis is displayed,"[1]; ethanol-resistant mutants (BZ6, BZ7, BZ8, BZ73)",0.1 to 0.25 mM
same,effect of aldicarb,"[1]; wild-type animals, 0.1-0.25 mM",only mildly affect
CCO [ethanol],decrease in speed,[2]; dgk-1(sy428),40%
same,decrease in speed,[2]; egl-30(js126gf),40%
same,decrease in speed,[2]; slo-1(js118) animals carrying a BK3.1 transgene (SLO-1 only in neurons),70%
same,decrease in speed,[2]; slo-1(js118) animals carrying a BK4.1 transgene (SLO-1 only in body muscle),little or no decrease in speed
same,decrease in speed,"[2]; slo-1(js118) animals, intoxicating doses of ethanol",no decrease in speed
same,decrease in speed,"[2]; three slo-1 mutations js118, eg6 and eg73, ethanol dose giving 60% decrease in wild-type",no decrease in speed
same,effect on locomotion,"[2]; wild-type animals, 400 mM ethanol",severe uncoordination and lethargy
same,decrease in speed,"[2]; wild-type animals, intoxicating doses of ethanol",60%
same,effect on egg-laying,"[3]; BZ6, BZ7 and BZ73 worms, high doses of ethanol",unaffected
same,effect on egg-laying,"[3]; BZ6, BZ7 and BZ73 worms, low doses (e.g. 50-100 mM exogenous concentration)",lay more eggs than wild-type worms
same,effect on egg-laying,"[3]; BZ8, high doses of ethanol",did not display this ethanol-resistance
same,decrease in egg laying,[3]; egl-30(js126),72%
same,decrease in egg laying,[3]; goa-1(n1134),80%
same,decrease in egg laying,[3]; slo-1(eg24),12%
same,decrease in egg laying rate,[3]; slo-1(eg142),no decrease in egg laying rate
same,effect on egg-laying,"[3]; wild-type C. elegans, high doses (e.g. 400 mM exogenous concentration)",almost completely suppress egg-laying
same,decrease in egg laying,[3]; wild-type strain,96%
c1ccc([C@H]2CN3CCSC3=N2)cc1 [levamisole],response to levamisole,"[4]; BZ6, BZ7 and BZ73, 60-100 μM",wild-type response
same,response to levamisole,[4]; BZ8,hypersensitive
"Iberiotoxin (QFTDVDCSVSKECWSVCKDLFGVDRGKCMGKKCRCYQ; UniProt P24663 1-37, looked up)",effective concentration as blocker of BK channels,[5],about 10 nM
